For the assay, the target named is V1a (Homo sapiens, UniProt P37288). Nature of the assay: Human vasopression V1a receptor binding assay. Set-up: host or cells: CHO cells (hV1a cell line), whole adherent cells. Particulars: hV1a cell line (CHO); for IC50: 1 nM 3H-AVP, Table 17, read-out: V1a Binding Affinity (IC50 (nM)); for Ki: Table 18. As for the experimental part:
Human vasopression V1a receptor binding assay. A cell line expressing the human V1a receptor in CHO cells (henceforth referred to as the hV1a cell line) was obtained from Dr. Michael Brownstein, NIMH, Bethesda, Md., USA. The hV1a cDNA sequence is described by Thibonnier et al., Journal of Biological Chemistry, 269, 3304-3310 (1994), and the expression method was the same as described by Morel et al. (1992). The hV1a cell line was grown in alpha-MEM with 10% fetal bovine serum and 250 ug/ml G418 (Gibco, Grand Island, N.Y., USA). For competitive binding assay, hV1a cells were plated into 6-well culture plate at 1:10 dilution from a confluency flask, and maintained in culture for at least two days. Culture medium was then removed, cells were washed with 2 ml binding buffer (25 mM Hepes, 0.25% BSA, 1×DMEM, PH=7.0). To each well, 990 μl binding buffer containing 1 nM 3H-AVP was added, and followed by 10 μl series diluted Example compounds dissolved in DMSO. […] 100 nM cold AVP (Sigma) was used to assess non-specific binding. Cells were incubated for 45 minutes at 37° C., assay mixture was removed and each well was washed three times with PBS (pH=7.4). 1 ml 2% SDS was added per well and plates were let sit for 30 minutes. The whole content in a well was transferred to a scintillation vial. Each well was rinsed with 0.5 ml PBS which was then added to the corresponding vial. Scintillation fluid (Ecoscint, National Diagnostics, Atlanta, Ga.) was then added at 3 ml per vial. Samples were counted in a liquid scintillation counter (Beckman LS3801). IC50 values were calculated by Prism Curve fitting software.
All of the alkanedioic esters and amides exemplified in the foregoing examples dissolved in DMSO were tested in this assay. Binding curves were generated according to methods described by Thibonnier et al. (1994). [^3H]-AVP was added to the hV1a cell cultures followed by 10 fold dilutions of each test compound.

V1a, sequence (P37288 whole entry): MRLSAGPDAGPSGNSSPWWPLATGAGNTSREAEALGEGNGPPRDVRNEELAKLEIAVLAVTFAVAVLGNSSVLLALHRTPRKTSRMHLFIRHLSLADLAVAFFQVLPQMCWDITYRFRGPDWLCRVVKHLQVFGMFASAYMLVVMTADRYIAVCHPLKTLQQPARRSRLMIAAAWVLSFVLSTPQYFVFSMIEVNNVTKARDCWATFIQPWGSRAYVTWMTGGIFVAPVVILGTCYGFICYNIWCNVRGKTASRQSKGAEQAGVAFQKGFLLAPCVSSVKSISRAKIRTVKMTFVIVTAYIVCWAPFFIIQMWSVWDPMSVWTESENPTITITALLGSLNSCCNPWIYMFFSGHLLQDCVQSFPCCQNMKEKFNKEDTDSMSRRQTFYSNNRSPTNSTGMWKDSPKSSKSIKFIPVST

For orientation: IC50 means the concentration at which inhibition is half-maximal. As a reminder, the Ki is the equilibrium dissociation constant of an inhibitor or competing ligand from its target. A low value points to tighter binding. As to `Cc1ccc(CNC(=O)[C@H](CCC(=O)N2CCN(C3CCCCC3)CC2)N2C(=O)[C@@H](N3C(=O)OC[C@@H]3c3ccccc3)[C@H]2/C=C/c2ccccc2)o1` [Example 212], the IC50 is 0.95 nM and the affinity corresponds to a Ki of 0.58 nM.

Consider `C[C@@]1(N2C(=O)OC[C@@H]2c2ccccc2)C(=O)N([C@H](CC(=O)N2CCC(N3CCCCC3)CC2)C(=O)NCc2cccc(C(F)(F)F)c2)[C@@H]1/C=C/c1ccccc1` [Example 234A, 4-(Piperidinyl)-piperidinyl 3(R)-[3(S)-(4(S)-phenyloxazolidin-2-on-3-yl)-3-methyl-4(R)-(styr-2-yl)azetidin-2-on-1-yl]-3-[(3-trifluoromethyl)phenylmethylaminocarbonyl]propanoic acid], for which the IC50 turned out to be 8.6 nM and the inhibitory constant (Ki) turned out to be 5.25 nM.

For the compound `O=C(NC1Cc2ccccc2C1)[C@H](CCC(=O)N1CCN(C2CCCCC2)CC1)N1C(=O)[C@@H](N2C(=O)OC[C@@H]2c2ccccc2)[C@H]1/C=C/c1ccccc1` [Example 221P], the IC50 worked out at 1.7 nM and affinity was put at a Ki of 1.1 nM.

Regarding `O=C(NCc1cccc(C(F)(F)F)c1F)[C@H](CCC(=O)N1CCN(C2CCCCC2)CC1)N1C(=O)[C@@H](N2C(=O)OC[C@@H]2c2ccccc2)[C@H]1/C=C/c1ccccc1` [Example 180], the IC50 is 0.33 nM.

Consider `O=C(N[C@@H]1CCCc2ccccc21)[C@H](CCC(=O)N1CCN(CCCO)CC1)N1C(=O)[C@@H](N2C(=O)OC[C@@H]2c2ccccc2)[C@H]1/C=C/c1ccccc1` [Example 221BI], for which the IC50 was determined as 56 nM and the Ki came to 35 nM.

Regarding `O=C(NCc1ccccc1C(F)(F)F)[C@H](CCC(=O)N1CCN(C2CCCCC2)CC1)N1C(=O)[C@@H](N2C(=O)OC[C@@H]2c2ccccc2)[C@H]1/C=C/c1ccccc1` [Example 182], the IC50 is 1.52 nM.

For `COc1ccc(OC)c(CNC(=O)[C@H](CCC(=O)N2CCN(C3CCCCC3)CC2)N2C(=O)[C@@H](N3C(=O)OC[C@@H]3c3ccccc3)[C@H]2/C=C/c2ccccc2)c1` [Example 219], the IC50 worked out at 0.63 nM and the Ki is 0.39 nM.

As to `CC(C)N1CCN(C(=O)CCC(C(=O)NCc2cccc(C(F)(F)F)c2)N2C(=O)C(N3C(=O)OCC3c3ccccc3)C2C=Cc2ccccc2)CC1` (single isomer, unassigned) [Example 104], the affinity, expressed as Ki, was 1.13 nM.

As for `O=C(NCc1cc(F)cc(C(F)(F)F)c1)[C@H](CCC(=O)N1CCN(C2CCCCC2)CC1)N1C(=O)[C@@H](N2C(=O)OC[C@@H]2c2ccccc2)[C@H]1/C=C/c1ccccc1` [Example 179], the IC50 came to 0.81 nM.

Take `COc1cccc(CNC(=O)[C@H](CCC(=O)N2CCN(C3CCCCC3)CC2)N2C(=O)[C@@H](N3C(=O)OC[C@@H]3c3ccccc3)[C@H]2/C=C/c2ccccc2)c1` [Example 183]: the IC50 is under 10 nM.

With `O=C(NCc1ccc(F)c(Cl)c1)[C@H](CCC(=O)N1CCN(C2CCCCC2)CC1)N1C(=O)[C@@H](N2C(=O)OC[C@@H]2c2ccccc2)[C@H]1/C=C/c1ccccc1` [Example 186], the IC50 was under 10 nM.

In the case of `O=C(NCc1cccc([N+](=O)[O-])c1)[C@H](CCC(=O)N1CCN(C2CCCCC2)CC1)N1C(=O)[C@@H](N2C(=O)OC[C@@H]2c2ccccc2)[C@H]1/C=C/c1ccccc1` [Example 189], the IC50 stood at 1.7 nM and the Ki worked out at 1.04 nM.

For the compound `COc1cc(OC)cc(C(C)(C)NC(=O)[C@H](CCC(=O)N2CCN(C3CCCCC3)CC2)N2C(=O)[C@@H](N3C(=O)OC[C@@H]3c3ccccc3)[C@H]2/C=C/c2ccccc2)c1` [Example 218], the IC50 turned out to be 7.7 nM and the Ki came to 4.7 nM.

For `O=C(NC1(c2ccccc2)CCCC1)[C@H](CC(=O)N1CCC(N2CCCCC2)CC1)N1C(=O)[C@@H](N2C(=O)OC[C@@H]2c2ccccc2)[C@H]1/C=C/c1ccccc1` [Example 132D], the IC50 was found to be 6.3 nM and affinity was put at a Ki of 3.9 nM.

`O=C(NCc1cccc(C(F)(F)F)c1)[C@H](CCC(=O)N1CCN(CCC2CCCCC2)CC1)N1C(=O)[C@@H](N2C(=O)OC[C@@H]2c2ccccc2)[C@H]1/C=C/c1ccccc1` [Example 111] displayed a Ki of 0.82 nM.

For `O=C(NCc1cccc(C(F)(F)F)c1)C(C(=O)N1CCC(CCN2CCCCC2)CC1)N1C(=O)[C@@H](N2C(=O)OC[C@@H]2c2ccccc2)[C@H]1/C=C/c1ccccc1` (mixture of isomers) [Example 42A], the IC50 was found to be 1.77 nM and affinity was put at a Ki of 1.17 nM.

Regarding `O=C(NCc1cccc(C(F)(F)F)c1)[C@@H](CC(=O)N1CCC(CN2CCCCC2)CC1)N1C(=O)[C@@H](N2C(=O)OC[C@@H]2c2ccccc2)[C@H]1/C=C/c1ccccc1` [Example 134G], the concentration for half-maximal inhibition (IC50) was determined as 6 nM and the affinity, expressed as Ki, was 3.7 nM.

For `O=C(NCc1cccc(C(F)(F)F)c1)[C@H](CCC(=O)N1CCC(CCN2CCCCC2)CC1)N1C(=O)[C@@H](N2C(=O)OC[C@@H]2c2ccccc2)[C@H]1/C=C/c1ccccc1` [Example 120A], the IC50 was 16.2 nM and affinity was put at a Ki of 9.9 nM.

Take `O=C(CC[C@@H](C(=O)N1CCc2ccccc2C1)N1C(=O)[C@@H](N2C(=O)OC[C@@H]2c2ccccc2)[C@H]1/C=C/c1ccccc1)N1CCN(C2CCCCC2)CC1` [Example 221O]: the IC50 came to 8.4 nM and the Ki stood at 5.1 nM.

With `O=C(NCc1ccco1)[C@H](CCC(=O)N1CCN(C2CCCCC2)CC1)N1C(=O)[C@@H](N2C(=O)OC[C@@H]2c2ccccc2)[C@H]1/C=C/c1ccccc1` [Example 211], the IC50 was 5.37 nM and the Ki came out at 3.29 nM.

`O=C(NCc1cccc(C(F)(F)F)c1)[C@H](CCC(=O)N1CCN(Cc2ccc3c(c2)OCO3)CC1)N1C(=O)[C@@H](N2C(=O)OC[C@@H]2c2ccccc2)[C@H]1/C=C/c1ccccc1` [Example 96] returned a Ki of 2.66 nM.

`COc1ccccc1CNC(=O)[C@H](CCC(=O)N1CCN(C2CCCCC2)CC1)N1C(=O)[C@@H](N2C(=O)OC[C@@H]2c2ccccc2)[C@H]1/C=C/c1ccccc1` [Example 220]: the IC50 turned out to be 5.3 nM and affinity was put at a Ki of 3.26 nM.

As to `CN(Cc1cccc(Br)c1)C(=O)[C@H](CCC(=O)N1CCN(C2CCCCC2)CC1)N1C(=O)[C@@H](N2C(=O)OC[C@@H]2c2ccccc2)[C@H]1/C=C/c1ccccc1` [Example 221D], the IC50 was 2.41 nM and the Ki was found to be 1.48 nM.

`Cc1ccccc1C(C)(C)NC(=O)[C@H](CCC(=O)N1CCN(C2CCCCC2)CC1)N1C(=O)[C@@H](N2C(=O)OC[C@@H]2c2ccccc2)[C@H]1/C=C/c1ccccc1` [Example 221]: the IC50 is 5.1 nM.

`O=C(NCc1cc(C(F)(F)F)ccc1F)[C@H](CCC(=O)N1CCN(C2CCCCC2)CC1)N1C(=O)[C@@H](N2C(=O)OC[C@@H]2c2ccccc2)[C@H]1/C=C/c1ccccc1` [Example 177]: the IC50 stood at 0.67 nM.

Turning to `O=C(NCc1cccc(C(F)(F)F)c1)C(C(=O)N1CCC(N2CCCCC2)CC1)N1C(=O)[C@@H](N2C(=O)OC[C@@H]2c2ccccc2)[C@H]1/C=C/c1ccccc1` (mixture of isomers) [Example 37], the affinity, expressed as Ki, was 3.39 nM.

For `O=C(NC1(c2ccc(Cl)cc2)CCCC1)[C@H](CCC(=O)N1CCN(C2CCCCC2)CC1)N1C(=O)[C@@H](N2C(=O)OC[C@@H]2c2ccccc2)[C@H]1/C=C/c1ccccc1` [Example 221AQ], the IC50 is about 50 nM.

Regarding `Cc1cc(C)cc(CNC(=O)[C@H](CCC(=O)N2CCN(C3CCCCC3)CC2)N2C(=O)[C@@H](N3C(=O)OC[C@@H]3c3ccccc3)[C@H]2/C=C/c2ccccc2)c1` [Example 199], the IC50 is under 10 nM.

Consider `O=C(NCc1ccncc1)[C@H](CCC(=O)N1CCN(C2CCCCC2)CC1)N1C(=O)[C@@H](N2C(=O)OC[C@@H]2c2ccccc2)[C@H]1/C=C/c1ccccc1` [Example 210], for which the IC50 worked out at 29.5 nM and the Ki is 18.1 nM.

For the compound `O=C(CC[C@@H](C(=O)N[C@@H]1CCCc2ccccc21)N1C(=O)[C@@H](N2C(=O)OC[C@@H]2c2ccccc2)[C@H]1/C=C/c1ccccc1)N[C@@H]1CCN(Cc2ccccc2)C1` [Example 221AD], the IC50 was about 50 nM.

As for `O=C(NCCc1ccccc1)[C@H](CCC(=O)N1CCN(C2CCCCC2)CC1)N1C(=O)[C@@H](N2C(=O)OC[C@@H]2c2ccccc2)[C@H]1/C=C/c1ccccc1` [Example 200], the IC50 was determined as 5.08 nM and the Ki came out at 3.11 nM.

On to `O=C(NC1(c2ccc(F)cc2)CCCC1)[C@H](CCC(=O)N1CCN(C2CCCCC2)CC1)N1C(=O)[C@@H](N2C(=O)OC[C@@H]2c2ccccc2)[C@H]1/C=C/c1ccccc1` [Example 221I], for which the IC50 was determined as 12 nM and the Ki turned out to be 7.4 nM.

Take `O=C(CC[C@@H](C(=O)N[C@@H]1CCCc2ccccc21)N1C(=O)[C@@H](N2C(=O)OC[C@@H]2c2ccccc2)[C@H]1/C=C/c1ccccc1)NC1CN2CCC1CC2` (stereo partly drawn) [Example 221AE]: the IC50 is about 50 nM.
